Data as given in PubChem BioAssay (NCI).
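The compound was tested at five concentrations on cells cultured in 96-well plates, with a 48-hour exposure period. Definition used: TGI = concentration required for complete inhibition of growth.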

Experiments:
Assay in all cases: inhibition of tumour cell growth, NCI panel, 48 h
[1] = system: 786-0 renal
[2] = system: A498 renal
[3] = system: A549 NSCLC
[4] = system: ACHN renal
[5] = system: BT-549 breast
[6] = system: CAKI-1 renal
[7] = system: CCRF-CEM leukemia
[8] = system: COLO 205 colon
[9] = system: DU-145 prostate
[10] = system: EKVX NSCLC
[11] = system: HCC-2998 colon
[12] = system: HCT-116 colon
[13] = system: HCT-15 colon
[14] = system: HL-60(TB) leukemia
[15] = system: HOP-92 NSCLC
[16] = system: HS 578T breast
[17] = system: HT29 colon
[18] = system: IGROV1 ovarian
[19] = system: K-562 leukemia
[20] = system: KM12 colon
[21] = system: LOX IMVI melanoma
[22] = system: M14 melanoma
[23] = system: MALME-3M melanoma
[24] = system: MCF7 breast
[25] = system: MDA-MB-231 breast
[26] = system: MDA-MB-435
[27] = system: MDA-N
[28] = system: MOLT-4 leukemia
[29] = system: NCI-H226 lung
[30] = system: NCI-H23 lung
[31] = system: NCI-H460 lung
[32] = system: NCI/ADR-RES ovarian
[33] = system: OVCAR-3 ovarian
[34] = system: OVCAR-4 ovarian
[35] = system: OVCAR-5 ovarian
[36] = system: OVCAR-8 ovarian
[37] = system: PC-3 prostate
[38] = system: RPMI-8226 leukemia
[39] = system: RXF 393 renal
[40] = system: SF-268 CNS
[41] = system: SF-295 CNS
[42] = system: SF-539 CNS
[43] = system: SK-MEL-2 melanoma
[44] = system: SK-MEL-28 melanoma
[45] = system: SK-MEL-5 melanoma
[46] = system: SK-OV-3 ovarian
[47] = system: SNB-19 CNS
[48] = system: SNB-75 CNS
[49] = system: SR leukemia
[50] = system: SW-620 colon
[51] = system: T-47D breast
[52] = system: TK-10 renal
[53] = system: U251 CNS
[54] = system: UACC-257 melanoma
[55] = system: UACC-62 melanoma
[56] = system: UO-31 renal
[57] = system: HOP-62 NSCLC
[58] = system: NCI-H522 lung
[59] = system: SN12C renal

Clc1ccc(C2=CC(c3ccccc3)N3C(=N[C@H]4CCCC[C@@H]43)N2)cc1 (stereo partly drawn)
TGI [1]: 10.9 µM
TGI [2]: 22.2 µM
TGI [3]: 18.4 µM
TGI [4]: 17.8 µM
TGI [5]: 21.3 µM
TGI [6]: 26.9 µM
TGI [7]: > 100 µM
TGI [8]: 4.23 µM
TGI [9]: 20.7 µM
TGI [10]: 17.4 µM
TGI [11]: 5.08 µM
TGI [12]: 11.6 µM
TGI [13]: 15.5 µM
TGI [14]: 7.79 µM
TGI [15]: 17.2 µM
TGI [16]: 23.6 µM
TGI [17]: 10.2 µM
TGI [18]: 13.6 µM
TGI [19]: > 100 µM
TGI [20]: 8.79 µM
TGI [21]: 19.7 µM
TGI [22]: 10.5 µM
TGI [23]: 14.5 µM
TGI [24]: 13.2 µM
TGI [25]: 22.1 µM
TGI [26]: 20.4 µM
TGI [27]: 18.9 µM
TGI [28]: 12.5 µM
TGI [29]: 23 µM
TGI [30]: 20.6 µM
TGI [31]: 8.72 µM
TGI [32]: 19.6 µM
TGI [33]: 19.3 µM
TGI [34]: 18.4 µM
TGI [35]: 23.6 µM
TGI [36]: 11.4 µM
TGI [37]: 19.5 µM
TGI [38]: 7.02 µM
TGI [39]: 8.44 µM
TGI [40]: 25.2 µM
TGI [41]: 20.3 µM
TGI [42]: 19.6 µM
TGI [43]: 27.2 µM
TGI [44]: 11 µM
TGI [45]: 3.35 µM
TGI [46]: 27.9 µM
TGI [47]: 17.6 µM
TGI [48]: 13.6 µM
TGI [49]: 5.98 µM
TGI [50]: 15.4 µM
TGI [51]: 21.6 µM
TGI [52]: 20 µM
TGI [53]: 17.2 µM
TGI [54]: 25.7 µM
TGI [55]: 18.6 µM
TGI [56]: 22.9 µM

Fc1cccc(C2ON=C(c3ccccc3)N2C23CC4CC(CC(C4)C2)C3)c1 (stereo not drawn)
TGI [1]: > 10 µM
TGI [2]: > 10 µM
TGI [3]: > 10 µM
TGI [4]: > 10 µM
TGI [5]: > 10 µM
TGI [6]: > 10 µM
TGI [8]: > 10 µM
TGI [9]: > 10 µM
TGI [10]: > 10 µM
TGI [11]: > 10 µM
TGI [12]: > 10 µM
TGI [13]: > 10 µM
TGI [14]: > 10 µM
TGI [57]: > 10 µM
TGI [15]: > 10 µM
TGI [16]: > 10 µM
TGI [17]: > 10 µM
TGI [18]: > 10 µM
TGI [19]: > 10 µM
TGI [20]: > 10 µM
TGI [21]: > 10 µM
TGI [22]: > 10 µM
TGI [23]: > 10 µM
TGI [24]: > 10 µM
TGI [25]: > 10 µM
TGI [26]: > 10 µM
TGI [27]: > 10 µM
TGI [28]: > 10 µM
TGI [29]: > 10 µM
TGI [30]: > 10 µM
TGI [31]: > 10 µM
TGI [58]: > 10 µM
TGI [32]: > 10 µM
TGI [33]: > 10 µM
TGI [34]: > 10 µM
TGI [35]: > 10 µM
TGI [36]: > 10 µM
TGI [37]: > 10 µM
TGI [38]: > 10 µM
TGI [39]: > 10 µM
TGI [40]: > 10 µM
TGI [41]: > 10 µM
TGI [42]: > 10 µM
TGI [43]: > 10 µM
TGI [44]: > 10 µM
TGI [45]: > 10 µM
TGI [46]: > 10 µM
TGI [59]: > 10 µM
TGI [47]: > 10 µM
TGI [48]: > 10 µM
TGI [49]: > 10 µM
TGI [50]: > 10 µM
TGI [51]: > 10 µM
TGI [52]: > 10 µM
TGI [53]: > 10 µM
TGI [54]: > 10 µM
TGI [55]: > 10 µM
